Results on two molecules are retold here after patent publication US7745651B2, “Cationic lipids and methods of use” (Protiva Biotherapeutics, Inc., priority 2004, dated 2010).

The nature of data set [1]: Nucleic acid encapsulation in SNALP, RiboGreen fluorescence assay. Type of data set: physicochemical. The settings on record: SNALP DSPC:Chol:PEG-C-DMA:Cationic Lipid 20:48:2:30 molar percent, siRNA; mean of 3 experiments, error is standard deviation. The protocol:
(§1) SNALP Preparation: SNALP with a lipid composition of DSPC:Chol:PEG-C-DMA:Cationic Lipid (20:48:2:30 molar percent) were prepared using the spontaneous vesicle formation by ethanol dilution method [Jeffs et al., Pharm. Res. In Press (2005)]. The sample's were diafiltered against 100 mL of PBS (20 wash volumes) using a cross flow ultrafiltration cartridge (Amersham Biosciences, Piscataway, N.J.) and sterile filtered through Acrodisc 0.2 μm Posidyne filters (Pall Corp., Ann Arbor, Mich.). The siRNA concentration of final samples was determined using the RiboGreen assay and a siRNA standard curve. Particle size and polydispersity was determined using a Malvern Instruments Zetasizer 3000HSA (Malvern, UK). Nucleic acid encapsulation was determined using a RiboGreen assay, comparing fluorescence in the presence and absence of Triton X-100. RiboGreen fluorescence was measured using a Varian Eclipse Spectrofluorometer (Varian Inc) with λex=500 nm, λem=525 nm.
(§2) This example sets forth the physical properties of the SNALP formulations described herein. SNALP containing the various cationic lipids were prepared as described and encapsulated RNA and particle size assessed (Table 1 below). […] Polydispersity of all formulations was low, indicating a narrow distribution of particle size. RNA encapsulation in the final particles was 84-85% of the total.
(§3) Percentage Encapsulation was determined using the RiboGreen fluorescence assay to measure the amount of encapsulated nucleic acid relative to the total nucleic acid present. Particle diameter and polydispersity was measured using a Malvern Zetasizer. Values are the mean of 3 separate experiments, the error is standard deviation.

Data set [2] can be described thus: SNALP particle diameter and polydispersity, Malvern Zetasizer. Type of data set: physicochemical. Conditions: SNALP DSPC:Chol:PEG-C-DMA:Cationic Lipid 20:48:2:30 molar percent; mean of 3 experiments, error is standard deviation. The protocol: as §1, §2, §3
Data set [3] has as its system luciferase expression in Neuro2A-G cells (Neuro2A cells stably transfected to express luciferase). Put plainly: In vitro transfection: luciferase gene silencing by SNALP encapsulating anti-luciferase siRNA. Conditions: for luciferase expression relative to untreated control: after 48 hours. Type of data set: cell-based. As to the method:
In vitro Transfection: Cells were cultured in MEM (Invitrogen) containing 10% fetal bovine serum (FBS) (CanSera) and 0.25 mg/mL G418 (Invitrogen). Neuro2A-G cells (Neuro2A cells stably transfected to express luciferase [R. E. Kingston. in Current Protocols in Molecular Biology, Vol. 2, pp. 9.1.4-9.1.9, John Wiley & Sons, Inc. (1997)]) were plated at a concentration of 4×10^4 cells per well in 24-well plates and grown overnight. Cells were treated with SNALP at doses of 0.0625-1.0 μg/mL nucleic acid (AntiLuc Active or Mismatch Control) and incubated for 48 hours at 37° C. and 5% CO2. Cells were then washed with PBS and lysed with 200 μL 250 mM sodium phosphate containing 0.1% Triton X-100. The luciferase activity for each well was determined using Luciferase Reagent (Promega) and a standard luciferase protein (Roche). The luminescence for each was measured using a Berthold MicroLumatPlus LB96V plate luminometer. The resulting luciferase activity was then normalized for the amount of protein using the Micro BCA assay kit (Pierce). Luciferase knockdown relative to a control was then determined for each system.
This example describes experiments comparing expression of nucleic acids following in vitro transfection of Neuro2A cells with SNALP comprising: (1) DODAC, DODMA, or DLinDMA; (2) PEG-C-DMA; and (3) an siRNA duplex directed against luciferase encapsulated in the SNALP (i.e., siRNA comprising the following sequence: […] (SEQ ID NO:1) and targeting the DNA sequence complementary to: […] (SEQ ID NO:3)). Neuro2A cells were stably transfected with a plasmid encoding luciferase under the control of the CMV promoter (pLO55). The stably transfected cells were then transfected with SNALP comprising: 15, 20, 25, 30, 35, or 40% of DODAC, DODMA, or DLinDMA; 2% PEG-C-DMA, and an siRNA duplex directed against luciferase encapsulated in the SNALP. Luciferase protein expression was measured 48 hours after transfection with SNALP.
The ability of SNALP containing each of the four cationic lipids (i.e., DSDMA, DODMA, DLinDMA, and DLenDMA) to effect gene silencing in stably transfected Neuro2A cells was evaluated. Neuro2A cells stably transfected to express the luciferase were treated with SNALP containing anti-luciferase siRNA for 48 hours. Gene-silencing efficiency was evaluated by comparing the remaining luciferase activity in these cells to that remaining in cells treated with control SNALP containing mismatch siRNA.

Data set [4] can be described thus: TNS assay, apparent pKa of cationic lipid incorporated in SNALP. The settings on record: TNS fluorescence, pH varied from 4.5 to 9.5.
Description: TNS Assay: 20 μM of SNALP lipid and 6 μM of TNS were mixed in a fluorescence cuvette in 2 mL of 20 mM sodium phosphate, 25 mM citrate, 20 mM ammonium acetate and 150 mM NaCl, at a pH that was varied from 4.5 to 9.5. Fluorescence was determined at each pH using a Varian Eclipse Spectrofluorometer (Varian Inc) with settings of λex=322 nm, λem=431 nm. Fluorescence for each system at the various pH was then normalized to the value at pH 4.5. The pKa values are the point at which 50% of the molecules present are charged. By assuming that minimum fluorescence represents zero charge, and maximum fluorescence represents 100% charge, pKa can be estimated by measuring the pH at the point exactly half way between the values of minimum and maximum charge.
TNS is electrostatically attracted to positively charged membranes. Subsequent adsorption to the lipid membrane results in the immediate environment of the TNS becoming more lipophilic, removing the water molecules that otherwise quench TNS fluorescence. Since TNS is more readily absorbed by positively charged membranes, TNS fluorescence is an indicator of positive membrane surface charge. The surface pKa values of each SNALP formulation were determined by varying the local pH in the presence of TNS.
Setting [5] is: SNALP with anti-luciferase siRNA.

Each structure is given as a SMILES string.

`CCCCC/C=C\C/C=C\CCCCCCCCOCC(CN(C)C)OCCCCCCCC/C=C\C/C=C\CCCCC` (centres unmarked) [DLinDMA, 1,2-DiLinoleyloxy-N,N-dimethylaminopropane]: the “% Encapsulation” value in data set [1] amounted to 84 ± 3%. Moreover, in data set [2], the “Diameter (nm)” value amounted to 140 ± 6 nm and the Polydispersity came to 0.11 ± 0.02. Moreover, in data set [3] (Neuro2A cells stably expressing luciferase, SNALP with anti-luciferase siRNA, 48 hours), the “knockdown in gene expression (luciferase) versus control SNALP containing mismatch siRNA” value came out at 80%. For the same molecule, the “reduction of luciferase expression compared with SNALP comprising DODAC or DODMA” value in data set [3] (SNALP with 30% cationic lipid, 2% PEG-C-DMA, anti-luciferase siRNA, 48 hours after transfection) is “more effective in reducing luciferase expression”. Also, the “luciferase expression relative to untreated control” value in data set [3] (setting [5]) is listed as 21%.

As to `CCCCCCCCCCCCCCCCCC[N+](C)(C)CCCCCCCCCCCCCCCCCC` [DODMA, dioctadecyldimethylammonium], the “% Encapsulation” value in data set [1] turned out to be 84 ± 1%. In addition, in data set [2], the “Diameter (nm)” value is given as 137 ± 4 nm and the Polydispersity is recorded as 0.12 ± 0.01. In addition, the “luciferase expression relative to untreated control” value in data set [3] (setting [5]) is 54%. The “apparent (surface) pKa of cationic lipid in SNALP” value in data set [4] came to 7.0.
